Results reported in US20240382607A1 (priority 2021, published 2024).

Legend:
MDA-MB-468 (HER2-) = experiment: In vitro cytotoxic activity screening, CTG assay, MDA-MB-468; format: cell-based
Experimental: (§1) In this experiment, the ATP content was determined using CTG to reflect the survival condition of the tumor cells. […] The killing effect of the toxin molecule was then assayed according to this condition.
(§2) According to the purpose of the experiment, two disease models of breast cancer and NSCLC were selected, and three cell strains of SKBR3 tumor cells (HER2+, ATCC, Cat #HTB-30), MDA-MB-468 (HER2-, ATCC, Cat #HTB-132) and A549 (human non-small cell lung cancer cells, ATCC, Cat #CCL-185) were selected for screening.
(§3) The cells were counted, and 4.3×10^5, 7.2×10^5 and 11.5×10^5 cells were each added to a culture solution to give a final volume of 26 mL. 180 μL of cell suspension was added to each well in columns 2 to 11 of a 96-well plate (Corning, Cat #3903) to give cell densities of 3K, 5K and 8K per well. Wells in column 12 were each filled with 200 μL of culture solution and the remaining wells were each filled with PBS. The SKBR3 and MDA-MB-468 cells were subjected to the same operations described above. […] 2 mM stock solution (stock solution diluted 10-fold in DMSO) was prepared in column 1 of drug preparation plate 1, and then 10-fold gradient dilution in DMSO was performed through column 10, and the wells in column 11 were filled with DMSO. […] The absorption value was read using a microplate reader and IC50 was calculated.

[1] = system: SKBR3 tumor cells (HER2+); experiment: In vitro cytotoxic activity screening, CTG assay, SKBR3; format: cell-based
Experimental: as §1, §2, §3

[2] = Pharmacokinetic experiment for beagles, intravenous administration; settings: 0.5 mg/kg
Experimental: (§4) Plasma samples were stored in a refrigerator at −80° C. prior to testing.
as §4

[3] = system: A549 (human non-small cell lung cancer cells); experiment: In vitro cytotoxic activity screening, CTG assay, A549; format: cell-based
Experimental: as §1, §2, §3

C=C1C[C@@H]2CC[C@@]34C[C@H]5O[C@H]6[C@@H](O3)[C@H]3O[C@H](CC[C@@H]3O[C@H]6[C@H]5O4)CC(=O)C[C@@H]3[C@@H](OC)[C@@H](C[C@@H](CN)OC)O[C@H]3C[C@H]3O[C@@H](CC[C@@H]1O2)C[C@@H](C)C3=C [Compound 1]
IC50 (MDA-MB-468 (HER2-); Homo sapiens, MDA-MB-468, read-out: IC50 (nM) MDA-MB-468): 0.183 nM | Maximum inhibition rate (%) MDA-MB-468 (MDA-MB-468 (HER2-); MDA-MB-468, CTG): 88.01% | IC50 ([1]; Homo sapiens, SK-BR-3, read-out: IC50 (nM) SKBR3): 0.205 nM | Maximum inhibition rate (%) SKBR3 ([1]; SKBR3, CTG): 96.87% | Plasma concentration C5 min [2]: 82.1 ng/mL | Maximum inhibition rate (%) A549 ([3]; A549, CTG): 81.34% | IC50 ([3]; Homo sapiens, A549, read-out: IC50 (nM) A549): 0.515 nM
